Results: US11591297B2, “Compound having PD-L1 expression-suppressing action” (TOHOKU UNIVERSITY, priority 2019, dated 2023)

Test system: human PD-L1 promoter
Assay: Inhibitory effect of luciferase expression under control of PD-L1 promoter (A549/PD-L1luc luciferase assay, corrected by total protein)
Assay type: cell-based
Conditions: Homo sapiens; A549/PD-L1luc cells, 48±4 hours, RLU corrected by total protein amount; read-out: IC50 (50% inhibition value of luciferase expression)
Excerpt: A reporter vector, pPD-L1luc obtained by the insertion of a human PD-L1 promoter sequence (−2097 to 51) into the multiple cloning site of pGL-3 vector basic (Promega) expresses luciferase under the control of PD-L1 promoter when transfected into animal cells. The pPD-L1luc was transfected into a human non-small cell lung cancer-derived cell line A549 together with pPUR (Clontech) that expresses a puromycin resistance gene (puromycin-N-acetyl-transferase gene), and then cells expressing luciferase which could grow in a puromycin-supplemented medium were selected. The selected cells were named “A549/PD-L1luc cells” and used for luciferase assay as described below.
A test compound was added into a culture liquid containing A549/PD-L1luc cells to observe the influence of the test compound on the amount of luciferase expressed in the cells. Here, it can be considered that when the test compound has a cell cytotoxicity or cell growth inhibitory effect, the total expression level of luciferase is recued due to a reduction in the number of living cells that depends on the concentration of the test compound, and thus the inhibitory effect of luciferase expression under the control of PD-L1 promoter of the test compound cannot be properly evaluated.
A549/PD-L1luc cells were suspended in DMEM containing 10% fetal calf serum (FCS) and 1% penicillin/streptomycin (P/S) (hereinafter, referred to as “DMEM medium”) at 3×10^4 cells/mL to obtain a cell suspension, and the cell suspension was dispensed into each well of a 96-well plate in an amount of 100 μL. In order to perform the assay in triplicate, 3 wells were prepared for control group, and 3 wells were prepared for test compound-treated groups at each concentration. After the dispensation, the 96-well plate was incubated in a CO2 incubator (at 37° C. and 5% CO2) for 24±4 hours.
Each compound of Examples 1 to 6 and Comparative Example 1 was dissolved in dimethylsulfoxide (DMSO) to obtain 50 mmol/L of a compound solution, and the compound solution was stored at −80° C. The compound solution was diluted with DMSO in 2-fold dilution series (usually, in the range of 0.04 mmol/L to 10 mmol/L) to prepare test compound solutions whose concentration varied by two fold for luciferase assay.
Each solution of only DMSO (control) and the diluted test compound (sample) was dispensed into each well containing the cell suspension in an amount of 0.5 μL (200-fold dilution). The solution in each well was mixed with a vortex mixer, and then the 96-well plate was incubated in a CO2 incubator (at 37° C. and 5% CO2) for 48±4 hours. Luciferase Assay Substrate (hereinafter, referred to as “LAS”) supplied in Luciferase Assay Systems (Promega: Cat #E1500) was dissolved in Luciferase Assay Buffer (LAB) to prepare a luciferase reagent. 5× Cell Culture Lysis Reagent (hereinafter, referred to as “CCLR”) was diluted by 5 times with water to prepare 1×CCLR.
After the incubation for 48±4 hours, the medium in each well was completely removed, and 1×CCLR was dispensed into each well in an amount of 50 μL. The plate was allowed to stand at room temperature for 30 minutes, and then 1×CCLR in each well was used as an assay sample for luciferase and total protein amount. The luciferase reagent (100 μL) was placed in a tube for chemiluminescence measurement assay, and the assay sample (20 μL) was added into the tube and mixed with the luciferase reagent to measure chemiluminescence (Relative Luminescence Intensity: RLU) using GloMax 20/20 (Promega).
The above-mentioned assay sample (10 μL) was diluted by 10 times with water (90 μL). Each calibration curve sample was prepared by diluting the BSA solution with water as described in Table 1.
BCA reagent A and BCA reagent B (50:1) supplied in a kit for protein assay were mixed to prepare Working Reagent. Each of the calibration curve samples (Vials I to VI) and the 10-fold diluted assay samples was dispensed into each well of a 96-well plate in an amount of 25 μL, respectively. […]

Point of comparison: O=C(Nc1ccc(Oc2ccc(C(F)(F)F)cc2)cc1)C1CCCN(C(=O)c2ccc([N+](=O)[O-])cc2)C1 (stereo not shown) [Example 2, 1-(4-Nitrobenzoyl)-N-(4-(4-(trifluoromethyl)phenoxy)phenyl) piperidine-3-carboxamide], IC50 1300 nM. Against it:
- COc1cc(C(=O)N2CCCC(C(=O)Nc3ccc(Oc4ccc(C(F)(F)F)cc4)cc3)C2)ccc1O (stereo not shown) [Example 3, 1-(4-Hydroxy-3-methoxybenzoyl)-N-(4-(4-(trifluoromethyl)phenoxy)phenyl)piperidine-3-carboxamide] — 2.1-fold lower, 610 nM
- O=C(Nc1ccc(Oc2ccc(S(F)(F)(F)(F)F)cc2)cc1)C1CCCN(C(=O)c2ccc([N+](=O)[O-])cc2)C1 (stereo not shown) [Example 5, 1-(4-Nitrobenzoyl)-N-(4-(4-(pentafluorosulfanyl)phenoxy)phenyl)piperidine-3-carboxamide] — 2.1-fold lower, 620 nM
- COc1cc(C(=O)N2CCCC(C(=O)Nc3ccc(Oc4ccc(S(F)(F)(F)(F)F)cc4)cc3)C2)ccc1O (stereo not shown) [Example 6, 1-(4-Hydroxy-3-methoxybenzoyl)-N-(4-(4-(pentafluorosulfanyl)phenoxy)phenyl)piperidine-3-carboxamide] — 2.1-fold lower, 610 nM
